Where two headings read alike, the source gives them in different places.
How the values were obtained:
[1] = tested on: TT-specific antibody responses; format: in vivo, BALB/c mice; conditions: sera
[2] = tested on: TT-specific antibody responses; format: in vivo, BALB/c mice; conditions: for titre of TT-specific IgA antibodies: one week after the recall dose, vs TT+CT without treatment
[3] = tested on: antigen-specific CD4^+ and CD8^+ T lymphocytes; experiment: CFSE proliferation assay of TT-specific T lymphocytes after intranasal immunization; format: in vivo, BALB/c mice
[4] = tested on: patients affected by Multiple Sclerosis; conditions: cited from earlier work
[5] = tested on: TT-specific antibody responses; format: in vivo, BALB/c mice; conditions: FTY720 0.5 mg/Kg intragastric 48 and 24 hours before intranasal TT+CT
[6] = tested on: TT-specific antibody secreting cells (ASC); format: in vivo, BALB/c mice; conditions: bone marrow
[7] = tested on: S1P receptors (S1P1, S1P3, S1P4 e S1P5); conditions: 4 of 5 S1P receptors (S1P1, S1P3, S1P4 e S1P5); cited from earlier work
[8] = tested on: Ova-specific CD4^+ and CD8^+ T lymphocytes; format: in vivo, BALB/c mice; conditions: 8 months after the fourth immunization, vs non treated
[9] = tested on: antigen-specific CD4^+ and CD8^+ proliferating cells; experiment: CFSE proliferation assay of TT-specific T lymphocytes after systemic (intraperitoneal) immunization; format: in vivo, BALB/c mice; conditions: 4 months after the second intraperitoneal immunization, vs non treated, p < 0.05
[10] = serum, TT-specific, TT+CT intranasal plus FTY720 vs without, at different analyzed kinetic points
[11] = draining (mediastinal) lymph nodes, two weeks after the fourth immunization, vs immunized non treated mice, p < 0.05
[12] = draining lymph nodes, 8 months after the fourth immunization, one week after one recall dose, vs non treated, p < 0.05
[13] = spleen, 8 months after the fourth immunization, after one recall dose, vs non treated
[14] = spleen, two weeks after the fourth immunization, treated vs non treated
[15] = oral, 0.5 and 1.25 mg a day, phase III clinical trials

## CCCCCCCCc1ccc(CCC(N)(CO)CO)cc1.Cl [FTY720, 2-amino-2-(2-(4-octylphenyl)ethyl)propane-1,3-diol hydrochloride]
[1]; one month after the second intraperitoneal immunization, treated vs non treated, differences decreased
  titre of anti-tetanus IgG antibodies, differences between the two groups: still detectable
[1]; one week after the first intraperitoneal immunization with TT+CT, FTY720 0.5 mg/Kg intragastrically the day after immunization, TT+CT without treatment: 63 times
  titre of anti-tetanus IgG antibodies: 203 times with respect to the titre of mice immunized only with TT
[1]; one week after the second intraperitoneal immunization, TT+CT plus FTY720 (575) vs TT+CT without treatment (152), apparently times over TT only
  titre of anti-tetanus IgG antibodies: 575
[2]; saliva
  titre of TT-specific IgA antibodies: higher titres
[2]; [10]
  titre of IgG1 subclass: Increase of the titre
  titre of IgG2a subclass: Increase of the titre
[2]; serum, four months after the fourth immunization (pre-boost), vs immunized mice without treatment
  anti-TT IgG antibody titre: maintained at higher levels
[2]; serum, one week after boost given four months after the fourth immunization, vs immunized mice without treatment
  IgG antibodies specific for the TT: higher levels
[2]; serum, one week after the fourth intranasal immunization, TT+CT plus FTY720 (761) vs TT+CT without treatment (304), apparently times over TT only
  anti-tetanus IgG antibody titre: 761
[2]; serum, one week after the second intranasal immunization with TT+CT, FTY720 0.5 mg/Kg intragastric the day after first and second immunization, TT+CT without treatment: 54 times
  anti-tetanus IgG antibody titre: 305 times with respect to the titre of mice which received only TT
[2]; serum, one week after the third intranasal immunization, TT+CT plus FTY720 vs TT+CT without treatment
  anti-tetanus IgG antibody titre: increase
[2]; vaginal washes (VW)
  titre of TT-specific IgA antibodies: higher titres
[3]; [11]
  proliferation of antigen-specific CD4^+ T lymphocytes: significantly higher
  proliferation of antigen-specific CD8^+ T lymphocytes: significantly higher
[3]; [12]
  proliferation of antigen-specific CD4^+ T lymphocytes: higher
  proliferation of antigen-specific CD8^+ T lymphocytes: higher
[3]; [13]
  percentage of antigen-specific CD4^+ T lymphocytes: higher percentage
  percentage of antigen-specific CD8^+ T lymphocytes: higher percentage
[3]; [14]
  proliferation of antigen-specific CD4^+ T lymphocytes: comparable
  proliferation of antigen-specific CD8^+ T lymphocytes: comparable
[4]; mainly in patients who received the higher dose (1.25 mg a day)
  infectious complications: some infectious complications
[4]; [15]
  effectiveness in Multiple Sclerosis patients: effective
  tolerability in Multiple Sclerosis patients: well tolerated
[5]; one week after the second immunization, data not showed
  titre of anti-tetanus IgG antibodies: only the titre of anti-tetanus IgG antibodies in mice immunized with TT and CT was appreciable
[5]; one week after the third immunization
  titre of IgG antibody specific for the TT: higher in mice immunized with TT and CT in the absence of treatment
[6]; two weeks after the fourth immunization, immunized and not treated mice: 60
  number of anti-TT IgG ASC: 115 ASC/1×10^6 of cells
[6]; two weeks after the fourth immunization, non treated: 40
  number of anti-TT IgA ASC: 80 ASC/1×10^6 of cells
[6]; two weeks after the recall dose (4 months after fourth immunization), non treated: 123
  number of anti-TT IgG ASC: 240 ASC/1×10^6 of cells
[6]; two weeks after the recall dose, non treated: 58
  number of anti-TT IgA ASC: 136 ASC/1×10^6 of cells
[7]
  agonist activity at S1P receptors: strong agonist
[8]; draining lymph nodes
  percentage of Ova-specific CD4^+ T lymphocytes: higher percentage
  percentage of Ova-specific CD8^+ T lymphocytes: higher percentage
[8]; spleen
  percentage of Ova-specific CD4^+ T lymphocytes: higher percentage
  percentage of Ova-specific CD8^+ T lymphocytes: higher percentage
[9]; lymph nodes
  percentage of antigen-specific CD4^+ proliferating cells: higher percentage
  percentage of antigen-specific CD8^+ proliferating cells: higher percentage
[9]; spleen
  percentage of antigen-specific CD4^+ proliferating cells: higher percentage
  percentage of antigen-specific CD8^+ proliferating cells: higher percentage

From patent EP2822595B1, “SPHINGOSINE-1 -PHOSPHATE RECEPTORS MODULATORS FOR IMPROVING VACCINE IMMUNIZATION” (Istituto Superiore di Sanità, priority 2012, dated 2013)
